Activity calls are given as the source filed them. The rule behind the calls is not given here.

The results in this text go back to ChEMBL document CHEMBL4765450, “The components and activities analysis of a novel anticoagulant candidate dHG-5” (Eur J Med Chem, 2020).

For data set [1], the target named is Coagulation factor XI (Homo sapiens) (UniProt P03951). Kind of data set: Inhibition of factor 11a (unknown origin) at IC50 using S-2366 as substrate preincubated for 1 min followed by chromogenic substrate addition and measured for 2 mins in presence of AT-III. To be noted: time 3.0 min.
Sequence of Coagulation factor XI (Homo sapiens) (P03951 19-387 limits assumed): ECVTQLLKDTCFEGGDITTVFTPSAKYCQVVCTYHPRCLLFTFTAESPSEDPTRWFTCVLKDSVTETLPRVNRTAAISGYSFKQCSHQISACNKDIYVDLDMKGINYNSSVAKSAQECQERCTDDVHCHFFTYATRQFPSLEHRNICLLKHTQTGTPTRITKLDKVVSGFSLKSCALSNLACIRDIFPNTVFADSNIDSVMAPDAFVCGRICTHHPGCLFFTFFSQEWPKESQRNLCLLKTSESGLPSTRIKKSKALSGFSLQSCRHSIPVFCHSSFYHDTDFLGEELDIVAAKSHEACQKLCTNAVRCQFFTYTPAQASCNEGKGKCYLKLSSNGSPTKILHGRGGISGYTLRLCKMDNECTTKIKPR
Sequence of Coagulation factor XI (Homo sapiens) (P03951 388-625 limits assumed): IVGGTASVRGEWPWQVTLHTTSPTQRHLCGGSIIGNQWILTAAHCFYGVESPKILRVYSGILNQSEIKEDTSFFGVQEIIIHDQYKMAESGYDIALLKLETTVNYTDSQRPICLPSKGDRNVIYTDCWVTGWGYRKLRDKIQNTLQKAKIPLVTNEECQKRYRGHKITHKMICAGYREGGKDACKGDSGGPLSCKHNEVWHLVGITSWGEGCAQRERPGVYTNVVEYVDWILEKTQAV
A further data set concerns Rattus norvegicus. Kind of data set: Antithrombotic activity in thromboplastin and stasis-induced Sprague-Dawley rat deep venous thrombosis model assessed as reduction in venous thrombosis administered subcutaneously 1 hr prior to thromboplastin addition for 20 secs followed by establishment of stasis for 20 mins. In kind it is functional. To be noted: time 80.33 min.

Data set [2] has as its target T1, Coagulation factor VII (Homo sapiens) (UniProt P08709).
T1 sequence (whole entry): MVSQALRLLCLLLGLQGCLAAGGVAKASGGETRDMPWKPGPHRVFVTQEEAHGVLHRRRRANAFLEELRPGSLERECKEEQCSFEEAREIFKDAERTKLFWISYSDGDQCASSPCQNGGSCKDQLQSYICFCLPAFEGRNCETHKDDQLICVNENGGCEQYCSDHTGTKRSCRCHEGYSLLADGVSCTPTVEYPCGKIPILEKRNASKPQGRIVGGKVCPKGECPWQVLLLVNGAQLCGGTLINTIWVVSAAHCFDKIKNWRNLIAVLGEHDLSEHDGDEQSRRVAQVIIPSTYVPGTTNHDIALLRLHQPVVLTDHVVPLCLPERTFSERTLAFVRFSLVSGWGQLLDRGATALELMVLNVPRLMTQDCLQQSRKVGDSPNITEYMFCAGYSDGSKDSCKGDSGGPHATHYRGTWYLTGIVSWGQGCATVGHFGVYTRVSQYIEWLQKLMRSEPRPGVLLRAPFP
Briefly: Inhibition of factor 7a (unknown origin) at IC50 using pefachrome factor VIIa as substrate preincubated for 1 min followed by chromogenic substrate addition and measured for 2 mins. The conditions noted are these: time 3.0 min.

A short description of data set [3]: Half life in Kunming mouse at 1.7 mg/kg, sc. The class given is ADME, organism-based. The conditions noted are these: in vivo.
The subject of data set [4] is Plasma. Kind of data set: Anticoagulation activity in HCII-deficient human plasma preincubated for 2 mins followed by APTT reagent and measured after 3 mins by coagulometric method. The class given is functional, cell-free. To be noted: time 5.0 min.
Data set [5] deals with Plasma. Kind of data set: Anticoagulation activity in human plasma assessed as drug level causing 20 times doubling of APTT preincubated for 2 mins followed by APTT reagent and measured after 3 mins by coagulometric method. In kind it is functional. The conditions noted are these: time 5 min.
A short description of data set [6]: Half life in Kunming mouse at 15.3 mg/kg, sc. In kind it is ADME, organism-based. To be noted: in vivo.
For data set [7], the target named is T2, Coagulation factor XII (Homo sapiens) (UniProt P00748).
T2 sequence (whole entry): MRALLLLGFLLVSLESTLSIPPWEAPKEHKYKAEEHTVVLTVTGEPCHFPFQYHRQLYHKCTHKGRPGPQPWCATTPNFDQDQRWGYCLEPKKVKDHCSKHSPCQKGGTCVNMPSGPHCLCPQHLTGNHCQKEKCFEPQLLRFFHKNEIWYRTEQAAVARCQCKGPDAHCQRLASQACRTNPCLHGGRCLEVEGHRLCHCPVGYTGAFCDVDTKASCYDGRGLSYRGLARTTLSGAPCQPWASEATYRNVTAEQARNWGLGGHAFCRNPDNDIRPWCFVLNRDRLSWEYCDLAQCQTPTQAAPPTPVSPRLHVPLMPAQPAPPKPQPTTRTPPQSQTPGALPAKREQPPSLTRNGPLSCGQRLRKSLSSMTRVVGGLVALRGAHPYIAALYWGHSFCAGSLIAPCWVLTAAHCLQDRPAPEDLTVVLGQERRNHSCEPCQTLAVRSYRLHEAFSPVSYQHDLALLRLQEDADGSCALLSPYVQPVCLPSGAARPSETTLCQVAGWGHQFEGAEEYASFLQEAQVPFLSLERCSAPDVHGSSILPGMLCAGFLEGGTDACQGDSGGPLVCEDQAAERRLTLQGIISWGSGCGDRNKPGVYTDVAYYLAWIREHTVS
Briefly: Inhibition of factor 12a (unknown origin) at IC50 using kallikrein chromogenic substrate preincubated for 1 min followed by chromogenic substrate addition and measured for 2 mins in presence of AT-III. To be noted: time 3.0 min.

The target in data set [8] is Prothrombin (Homo sapiens) (UniProt P00734). Kind of data set: Inhibition of factor 2a (unknown origin) at IC90 preincubated for 1 min followed by chromogenic substrate addition and measured for 2 mins in presence of AT-III. To be noted: time 3.0 min.
For data set [9], the target named is Coagulation factor X (Homo sapiens) (UniProt P00742). Briefly: Inhibition of factor 10a (unknown origin) at IC50 preincubated for 1 min followed by chromogenic substrate addition and measured for 2 mins. The conditions noted are these: time 3.0 min.
Sequence of Coagulation factor X (Homo sapiens) (P00742 41-179 limits assumed): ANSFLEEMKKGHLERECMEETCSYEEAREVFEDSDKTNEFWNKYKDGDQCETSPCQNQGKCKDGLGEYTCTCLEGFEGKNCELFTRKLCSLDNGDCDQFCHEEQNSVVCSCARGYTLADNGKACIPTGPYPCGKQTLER
Sequence of Coagulation factor X (Homo sapiens) (P00742 235-488 limits assumed): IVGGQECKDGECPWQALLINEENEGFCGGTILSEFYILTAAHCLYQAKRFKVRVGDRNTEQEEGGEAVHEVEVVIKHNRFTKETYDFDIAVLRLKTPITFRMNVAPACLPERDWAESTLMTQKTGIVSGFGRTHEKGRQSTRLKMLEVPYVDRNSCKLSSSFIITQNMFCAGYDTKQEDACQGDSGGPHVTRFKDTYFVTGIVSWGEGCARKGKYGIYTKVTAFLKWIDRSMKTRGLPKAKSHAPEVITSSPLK
The nature of data set [10]: Tmax in Kunming mouse at 15.3 mg/kg, sc. The class given is ADME, organism-based. To be noted: in vivo.
For data set [11], the system named is Plasma. Kind of data set: Anticoagulation activity in AT-III-deficient human plasma preincubated for 2 mins followed by APTT reagent and measured after 3 mins by coagulometric method. In kind it is functional, cell-free. The conditions noted are these: time 5.0 min.

Turning to `CC(=O)N[C@H]1[C@H](O[C@H]2[C@H](O[C@@H]3O[C@@H](C)[C@@H](OS(=O)(=O)[O-])[C@@H](O)[C@@H]3OS(=O)(=O)O)[C@@H](O)[C@H](O[C@H]3[C@@H](NC(C)=O)[C@H](O[C@H]4[C@H](O[C@@H]5O[C@@H](C)[C@@H](OS(=O)(=O)[O-])[C@@H](O)[C@@H]5OS(=O)(=O)O)[C@@H](O)[C@H](O[C@H]5[C@@H](NC(C)=O)[C@H](O[C@H]6[C@H](O[C@@H]7O[C@@H](C)[C@@H](OS(=O)(=O)[O-])[C@@H](O)[C@@H]7OS(=O)(=O)O)[C@@H](O)[C@H](O[C@H]7[C@@H](NC(C)=O)[C@H](O[C@H]8[C@H](O[C@@H]9O[C@@H](C)[C@@H](OS(=O)(=O)[O-])[C@@H](O)[C@@H]9OS(=O)(=O)O)[C@@H](O)[C@H](O[C@H]9[C@@H](NC(C)=O)[C@H](O[C@@H]([C@H](O[C@@H]%10O[C@@H](C)[C@@H](OS(=O)(=O)[O-])[C@@H](O)[C@@H]%10OS(=O)(=O)O)[C@@H](O)CO)[C@H](O)C(=O)[O-])O[C@H](COS(=O)(=O)[O-])[C@@H]9OS(=O)(=O)[O-])O[C@@H]8C(=O)[O-])O[C@H](COS(=O)(=O)[O-])[C@@H]7OS(=O)(=O)[O-])O[C@@H]6C(=O)[O-])O[C@H](COS(=O)(=O)[O-])[C@@H]5OS(=O)(=O)[O-])O[C@@H]4C(=O)[O-])O[C@H](COS(=O)(=O)[O-])[C@@H]3OS(=O)(=O)[O-])O[C@@H]2C(=O)[O-])O[C@H](COS(=O)(=O)[O-])[C@H](OS(=O)(=O)[O-])[C@@H]1O[C@@H]1OC(C(=O)[O-])=C[C@H](O[C@@H]2O[C@@H](C)[C@@H](OS(=O)(=O)[O-])[C@@H](O)[C@@H]2OS(=O)(=O)O)[C@H]1O.[Na+].[Na+].[Na+].[Na+].[Na+].[Na+].[Na+].[Na+].[Na+].[Na+].[Na+].[Na+].[Na+].[Na+].[Na+].[Na+].[Na+].[Na+].[Na+].[Na+].[Na+].[Na+]`, the inhibition result in data set [1], in [7] and in [9] was “inactive” throughout. Besides, the ED50 with Rattus norvegicus (sc, 1.339 h) amounted to 2.38 mg/kg. In addition, in the data set on Rattus norvegicus, the Activity result was “Dose-dependent effect”. Also, in [2], the “inhibition (active/not active)” value was “inactive”. The half-life in data set [3] is 65.4 min; in [6], 33.8 min. Moreover, the outcome with Plasma [4] and in the data set on Plasma [11] was Active. Also, in the data set with Plasma [5], the EC is 1.79 µM. In addition, the inhibition entry in data set [8] is “Active”. In addition, the time of peak concentration (Tmax) in data set [10] was found to be 45 min.

Broadly, the ED50 is the dose at which the effect has come halfway, by size or by number of responders. The half-life is how long it takes for the measured level to halve. A low value points to rapid decline. In general, Tmax refers to the time from dosing to the highest level.
